Measured values as given in patent US20250230193A1, “CYCLIC COMPOUND HAVING SELECTIVE KRAS INHIBITORY EFFECT ON HRAS AND NRAS” (CHUGAI SEIYAKU KABUSHIKI KAISHA, priority 2022, published 2025).

Experiments:
[1] = molecular target: GDP-bound NRAS wild-type protein (Homo sapiens, UniProt P01111); test: Binding to NRAS by surface plasmon resonance (SPR), Single Cycle Kinetics; settings: KD ratio, GDP-bound NRAS wild-type vs GDP-bound KRAS wild-type, SPR
[2] = molecular target: GDP-bound HRAS wild-type protein (Homo sapiens, UniProt P01112); test: Binding to HRAS by surface plasmon resonance (SPR), Single Cycle Kinetics; settings: KD ratio, GDP-bound HRAS wild-type vs GDP-bound KRAS wild-type, SPR
Chain of GDP-bound HRAS wild-type protein (P01112 whole entry): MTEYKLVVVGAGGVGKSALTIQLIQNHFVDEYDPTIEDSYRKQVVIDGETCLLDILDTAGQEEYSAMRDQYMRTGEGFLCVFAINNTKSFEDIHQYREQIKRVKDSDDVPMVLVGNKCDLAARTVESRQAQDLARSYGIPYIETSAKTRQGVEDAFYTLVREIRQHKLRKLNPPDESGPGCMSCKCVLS

Chain of GDP-bound NRAS wild-type protein (P01111 whole entry): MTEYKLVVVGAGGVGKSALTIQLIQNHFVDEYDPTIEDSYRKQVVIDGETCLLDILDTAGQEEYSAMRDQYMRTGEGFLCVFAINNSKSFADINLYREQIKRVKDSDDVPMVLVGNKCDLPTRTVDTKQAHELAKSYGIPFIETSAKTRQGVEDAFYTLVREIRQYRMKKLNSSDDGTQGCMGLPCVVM

Row | Structure (SMILES) | NRAS/KRAS (ratio of KD value with respect to NRAS to KD value with respect to KRAS) [1] | HRAS/KRAS (ratio of KD value with respect to HRAS to KD value with respect to KRAS) [2]
1 | C=CC[C@H]1C(=O)N[C@@H]([C@@H](C)CC)C(=O)N(C)CC(=O)N(C)[C@H]2CCCCCN(C2=O)[C@@H](Cc2ccc(C(F)(F)F)cc2)C(=O)N(C)CC(=O)N[C@@H](CCc2cc(F)c(C(F)(F)F)c(F)c2)C(=O)N2C[C@H](OCC)C[C@H]2C(=O)N[C@](C)(CC=C)C(=O)N(C)[C@@H](C2CCCC2)C(=O)N(C)[C@H](C(=O)N2CCOCC2)CC(=O)N1C [PP0878] | B (a compound having 3 or more and less than 10 is denoted as B) | B (a compound having 3 or more and less than 10 is denoted as B)
2 | C=CCC[C@H]1C(=O)N[C@@H]([C@@H](C)CC)C(=O)N(C)CC(=O)N(C)[C@H]2CCCCCN(C2=O)[C@@H](Cc2ccc(C(F)(F)F)cc2)C(=O)N(C)CC(=O)N[C@@H](CCc2cc(F)c(C(F)(F)F)c(F)c2)C(=O)N2C[C@H](OCC)C[C@H]2C(=O)N[C@](C)(CC=C)C(=O)N(C)[C@@H](C2CCCC2)C(=O)N(C)[C@H](C(=O)N2CCOCC2)CC(=O)N1C [PP0879] | B (a compound having 3 or more and less than 10 is denoted as B) | B (a compound having 3 or more and less than 10 is denoted as B)
3 | C=CCCC[C@H]1C(=O)N[C@@H]([C@@H](C)CC)C(=O)N(C)CC(=O)N(C)[C@H]2CCCCCN(C2=O)[C@@H](Cc2ccc(C(F)(F)F)cc2)C(=O)N(C)CC(=O)N[C@@H](CCc2cc(F)c(C(F)(F)F)c(F)c2)C(=O)N2C[C@H](OCC)C[C@H]2C(=O)N[C@](C)(CC=C)C(=O)N(C)[C@@H](C2CCCC2)C(=O)N(C)[C@H](C(=O)N2CCOCC2)CC(=O)N1C [PP0880] | B (a compound having 3 or more and less than 10 is denoted as B) | B (a compound having 3 or more and less than 10 is denoted as B)
4 | CCO[C@@H]1C[C@H]2C(=O)NC3(CCC3)C(=O)N(C)[C@@H](C3CCCC3)C(=O)N(C)[C@H](C(=O)N(C)C)CC(=O)N(C)[C@@H](CC)C(=O)N[C@@H]([C@@H](C)CC)C(=O)N(C)CC(=O)N(C)[C@H]3CCCCN(C3=O)[C@@H](Cc3ccc(C(F)(F)F)cc3)C(=O)N(C)CC(=O)N[C@@H](CCc3ccc(C(F)(F)F)c(C)c3)C(=O)N2C1 [PP0882] | C (A compound having a KD ratio of 0.1 or more and less than 3 is denoted as C) | B (a compound having 3 or more and less than 10 is denoted as B)
5 | CCO[C@@H]1C[C@H]2C(=O)NC3(CCC3)C(=O)N(C)[C@@H](C3CCCC3)C(=O)N(C)[C@H](C(=O)N(C)C)CC(=O)N(C)[C@@H](CC)C(=O)N[C@@H]([C@@H](C)CC)C(=O)N(C)CC(=O)N(C)[C@H]3CCCCN(C3=O)[C@@H](Cc3ccc(C(F)(F)F)cc3)C(=O)N(C)CC(=O)N[C@@H](CCc3ccc(C(F)(F)F)c(OC)c3)C(=O)N2C1 [PP0884] | C (A compound having a KD ratio of 0.1 or more and less than 3 is denoted as C) | C (A compound having a KD ratio of 0.1 or more and less than 3 is denoted as C)
6 | CCO[C@@H]1C[C@H]2C(=O)NC3(CCC3)C(=O)N(C)[C@@H](C3CCCC3)C(=O)N(C)[C@H](C(=O)N(C)C)CC(=O)N(C)[C@@H](CC)C(=O)N[C@@H]([C@@H](C)CC)C(=O)N(C)CC(=O)N(C)[C@H]3CCCCN(C3=O)[C@@H](Cc3ccc(C(F)(F)F)cc3)C(=O)N(C)CC(=O)N[C@@H](CCc3ccc(C(F)(F)F)cc3F)C(=O)N2C1 [PP0885] | C (A compound having a KD ratio of 0.1 or more and less than 3 is denoted as C) | B (a compound having 3 or more and less than 10 is denoted as B)
7 | CCO[C@@H]1C[C@H]2C(=O)NC3(CCC3)C(=O)N(C)[C@@H](C3CCCC3)C(=O)N(C)[C@H](C(=O)N(C)C)CC(=O)N(C)[C@@H](CC)C(=O)N[C@@H]([C@@H](C)CC)C(=O)N(C)CC(=O)N(C)[C@H]3CCCCN(C3=O)[C@@H](Cc3ccc(C(F)(F)F)cc3)C(=O)N(C)CC(=O)N[C@@H](CCc3c(F)c(F)c(C(F)(F)F)c(F)c3F)C(=O)N2C1 [PP0886] | C (A compound having a KD ratio of 0.1 or more and less than 3 is denoted as C) | B (a compound having 3 or more and less than 10 is denoted as B)
8 | CCO[C@@H]1C[C@H]2C(=O)NC3(CCC3)C(=O)N(C)[C@@H](C3CCCC3)C(=O)N(C)[C@H](C(=O)N(C)C)CC(=O)N(C)[C@@H](CC)C(=O)N[C@@H]([C@@H](C)CC)C(=O)N(C)CC(=O)N(C)[C@H]3CCCCN(C3=O)[C@@H](Cc3ccc(C(F)(F)F)cc3)C(=O)N(C)CC(=O)N[C@@H](CCc3ccc4sccc4c3)C(=O)N2C1 [PP0887] | C (A compound having a KD ratio of 0.1 or more and less than 3 is denoted as C) | C (A compound having a KD ratio of 0.1 or more and less than 3 is denoted as C)
9 | CCO[C@@H]1C[C@H]2C(=O)NC3(CCC3)C(=O)N(C)[C@@H](C3CCCC3)C(=O)N(C)[C@H](C(=O)N(C)C)CC(=O)N(C)[C@@H](CC)C(=O)N[C@@H]([C@@H](C)CC)C(=O)N(C)CC(=O)N(C)[C@H]3CCCCN(C3=O)[C@@H](Cc3ccc(C(F)(F)F)cc3)C(=O)N(C)CC(=O)N[C@@H](CCc3ccc4ccsc4c3)C(=O)N2C1 [PP0888] | C (A compound having a KD ratio of 0.1 or more and less than 3 is denoted as C) | B (a compound having 3 or more and less than 10 is denoted as B)
10 | CCO[C@@H]1C[C@H]2C(=O)NC3(CCC3)C(=O)N(C)[C@@H](C3CCCC3)C(=O)N(C)[C@H](C(=O)N(C)C)CC(=O)N(C)[C@@H](CC)C(=O)N[C@@H]([C@@H](C)CC)C(=O)N(C)CC(=O)N(C)[C@H]3CCCCCN(C3=O)[C@@H](Cc3ccc(C(F)(F)F)cc3)C(=O)N(C)CC(=O)N[C@@H](CCc3c(F)c(F)c(C(F)(F)F)c(F)c3F)C(=O)N2C1 [PP0891] | B (a compound having 3 or more and less than 10 is denoted as B) | B (a compound having 3 or more and less than 10 is denoted as B)
11 | CCO[C@@H]1C[C@H]2C(=O)NC3(CCC3)C(=O)N(C)[C@@H](C3CCCC3)C(=O)N(C)[C@H](C(=O)N(C)C)CC(=O)N(C)[C@@H](CC)C(=O)N[C@@H]([C@@H](C)CC)C(=O)N(C)CC(=O)N(C)[C@H]3CCCCCN(C3=O)[C@@H](Cc3ccc(C(F)(F)F)cc3)C(=O)N(C)CC(=O)N[C@@H](CCc3ccc4sccc4c3)C(=O)N2C1 [PP0892] | B (a compound having 3 or more and less than 10 is denoted as B) | B (a compound having 3 or more and less than 10 is denoted as B)
12 | CCCN1C(=O)CN(C)C(=O)CN(C)C(=O)[C@H]([C@@H](C)CC)NC(=O)[C@@H]2CCCCCOc3ccc(cc3)C[C@H]1C(=O)N(C)CC(=O)N[C@@H](CCc1cc(F)c(C(F)(F)F)c(F)c1)C(=O)N1C[C@H](OCC)C[C@H]1C(=O)NC1(CCCC1)C(=O)N(C)[C@@H](C1CCCC1)C(=O)N(C)[C@H](C(=O)N(C)C)CC(=O)N2C [PP0895] | C (A compound having a KD ratio of 0.1 or more and less than 3 is denoted as C) | C (A compound having a KD ratio of 0.1 or more and less than 3 is denoted as C)
13 | CCCN1C(=O)CN(C)C(=O)CN(C)C(=O)[C@H]([C@@H](C)CC)NC(=O)[C@@H]2CCCCCCOc3ccc(cc3)C[C@H]1C(=O)N(C)CC(=O)N[C@@H](CCc1cc(F)c(C(F)(F)F)c(F)c1)C(=O)N1C[C@H](OCC)C[C@H]1C(=O)NC1(CCCC1)C(=O)N(C)[C@@H](C1CCCC1)C(=O)N(C)[C@H](C(=O)N(C)C)CC(=O)N2C [PP0896] | C (A compound having a KD ratio of 0.1 or more and less than 3 is denoted as C) | C (A compound having a KD ratio of 0.1 or more and less than 3 is denoted as C)
14 | CCO[C@@H]1C[C@H]2C(=O)NC3(CCC3)C(=O)N(C)[C@@H](C3CCCC3)C(=O)N(C)[C@H](C(=O)N(C)C)CC(=O)N(C)[C@@H](CC)C(=O)N[C@@H]([C@@H](C)CC)C(=O)N(C)CC(=O)N(C)[C@H]3CCCCCN(C3=O)[C@@H](Cc3ccc(F)c(F)c3)C(=O)N(C)CC(=O)N[C@@H](CCc3cc(F)c(C(F)(F)F)c(F)c3)C(=O)N2C1 [PP0907] | B (a compound having 3 or more and less than 10 is denoted as B) | B (a compound having 3 or more and less than 10 is denoted as B)
15 | CCO[C@@H]1C[C@H]2C(=O)NC3(CCC3)C(=O)N(C)[C@@H](C3CCCC3)C(=O)N(C)[C@H](C(=O)N(C)C)CC(=O)N(C)[C@@H](CC)C(=O)N[C@@H]([C@@H](C)CC)C(=O)N(C)CC(=O)N(C)[C@H]3CCCCCN(C3=O)[C@@H](Cc3ccc(F)cc3Cl)C(=O)N(C)CC(=O)N[C@@H](CCc3cc(F)c(C(F)(F)F)c(F)c3)C(=O)N2C1 [PP0908] | B (a compound having 3 or more and less than 10 is denoted as B) | B (a compound having 3 or more and less than 10 is denoted as B)
16 | CCO[C@@H]1C[C@H]2C(=O)NC3(CCC3)C(=O)N(C)[C@@H](C3CCCC3)C(=O)N(C)[C@H](C(=O)N(C)C)CC(=O)N(C)[C@@H](CC)C(=O)N[C@@H]([C@@H](C)CC)C(=O)N(C)CC(=O)N(C)[C@H]3CCCCCN(C3=O)[C@@H](Cc3ccc(F)c(Cl)c3)C(=O)N(C)CC(=O)N[C@@H](CCc3cc(F)c(C(F)(F)F)c(F)c3)C(=O)N2C1 [PP0909] | B (a compound having 3 or more and less than 10 is denoted as B) | B (a compound having 3 or more and less than 10 is denoted as B)
